According to paper PMC12799524, “Putative new biomarkers for renal transporter-mediated drug-drug interactions: Characterization as substrates of organic cation transporter 2, multidrug and toxin extrusion protein 1, and other important drug transporters” (Drug Metabolism and Disposition, 2025):

Assays:
MATE1 = target: T1, MATE1 (Homo sapiens, UniProt Q96FL8); test: Uptake assay in HEK-MATE1 vs HEK-VC cells (pH 8.0); conditions: for Uptake in HEK-MATE1 cells compared to HEK-VC cells (in words) / Effect of cimetidine on uptake in HEK-MATE1 cells: 10 and 100 μM substrate; for Uptake in HEK-MATE1 cells compared to HEK-VC cells (in words): pH 8.0; for In Vitro MATE1 (substrate class): summary of in vitro uptake/transport results; for Uptake in HEK-MATE1 cells compared to HEK-VC cells: 10 μM substrate; for Effect of cimetidine on uptake in HEK-MATE1 cells: cimetidine 50 μM
T1 sequence (Q96FL8 1-570): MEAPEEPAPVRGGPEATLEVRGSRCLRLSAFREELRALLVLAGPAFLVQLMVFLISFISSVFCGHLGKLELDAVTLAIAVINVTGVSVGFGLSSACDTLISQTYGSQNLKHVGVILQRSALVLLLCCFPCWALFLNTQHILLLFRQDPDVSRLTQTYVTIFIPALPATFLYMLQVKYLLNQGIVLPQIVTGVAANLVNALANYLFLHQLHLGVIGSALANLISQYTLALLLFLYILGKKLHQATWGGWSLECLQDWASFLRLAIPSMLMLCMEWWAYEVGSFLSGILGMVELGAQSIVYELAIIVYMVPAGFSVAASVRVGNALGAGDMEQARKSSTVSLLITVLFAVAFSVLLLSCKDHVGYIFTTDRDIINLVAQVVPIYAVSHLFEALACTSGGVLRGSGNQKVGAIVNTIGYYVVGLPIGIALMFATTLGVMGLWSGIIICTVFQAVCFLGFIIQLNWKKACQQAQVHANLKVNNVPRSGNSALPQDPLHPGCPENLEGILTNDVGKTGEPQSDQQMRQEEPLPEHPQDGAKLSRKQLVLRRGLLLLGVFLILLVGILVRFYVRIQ
Experimental: (§1) Transport experiments were performed 48 hours after seeding.
(§2) The intracellular background of all 5 compounds in HEK cells at the beginning of the uptake experiments was investigated 48 hours after seeding without incubation with transport buffer (ie, 0 minutes). […] Then, cells were lysed with ice-cold 80% MeOH containing the aforementioned recovery standards. In addition, the impact of a 5-minute incubation period with transport buffer without added substance was investigated.

P-gp = P-gp (Homo sapiens, UniProt P08183); test: Intracellular accumulation and basal to apical transport in Caco-2 cells with/without valspodar; conditions: for In Vitro P-gp (substrate class): Caco-2 cells, valspodar
Chain of P-gp (P08183 whole entry): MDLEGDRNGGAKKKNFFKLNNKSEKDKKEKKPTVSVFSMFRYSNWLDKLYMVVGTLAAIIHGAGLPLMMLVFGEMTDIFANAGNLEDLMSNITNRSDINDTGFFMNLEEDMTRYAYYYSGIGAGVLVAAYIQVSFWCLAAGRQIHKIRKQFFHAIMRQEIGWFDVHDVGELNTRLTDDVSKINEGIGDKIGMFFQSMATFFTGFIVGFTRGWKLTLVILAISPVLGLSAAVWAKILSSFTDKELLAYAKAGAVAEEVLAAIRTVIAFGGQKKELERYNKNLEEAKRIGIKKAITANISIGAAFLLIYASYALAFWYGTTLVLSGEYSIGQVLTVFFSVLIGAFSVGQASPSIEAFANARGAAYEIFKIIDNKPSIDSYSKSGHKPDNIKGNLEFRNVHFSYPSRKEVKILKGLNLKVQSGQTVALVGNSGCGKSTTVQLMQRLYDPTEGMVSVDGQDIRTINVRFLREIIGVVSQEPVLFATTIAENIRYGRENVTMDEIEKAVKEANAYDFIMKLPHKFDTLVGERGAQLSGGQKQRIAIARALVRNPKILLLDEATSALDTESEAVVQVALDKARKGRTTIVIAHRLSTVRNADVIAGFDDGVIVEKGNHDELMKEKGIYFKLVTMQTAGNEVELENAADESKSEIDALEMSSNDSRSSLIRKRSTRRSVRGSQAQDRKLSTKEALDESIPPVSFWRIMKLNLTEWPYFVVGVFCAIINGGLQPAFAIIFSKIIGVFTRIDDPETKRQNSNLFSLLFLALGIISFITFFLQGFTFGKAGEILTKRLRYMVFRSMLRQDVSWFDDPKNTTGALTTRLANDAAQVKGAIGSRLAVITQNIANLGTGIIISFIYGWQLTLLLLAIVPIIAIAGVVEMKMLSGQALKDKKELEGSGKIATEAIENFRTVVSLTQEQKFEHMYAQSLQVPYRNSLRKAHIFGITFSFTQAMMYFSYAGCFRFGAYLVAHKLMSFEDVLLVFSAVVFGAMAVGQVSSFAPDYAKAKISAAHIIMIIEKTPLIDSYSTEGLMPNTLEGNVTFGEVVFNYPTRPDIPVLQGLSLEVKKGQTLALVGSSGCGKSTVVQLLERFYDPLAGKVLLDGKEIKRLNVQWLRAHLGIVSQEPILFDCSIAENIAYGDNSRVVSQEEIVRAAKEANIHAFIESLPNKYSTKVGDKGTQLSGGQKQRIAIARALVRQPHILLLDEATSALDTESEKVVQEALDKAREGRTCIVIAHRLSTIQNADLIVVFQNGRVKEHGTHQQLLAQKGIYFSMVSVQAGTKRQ
Experimental: (§3) The intracellular accumulation and transcellular, basal to apical transport experiments were performed as previously described in monolayers of polarized single-transfected (MDCK-OCT2, MDCK-MATE1) and double-transfected (MDCK-OCT2-MATE1) MDCK cells, MDCK control cells (MDCK-VC), or Caco-2 cells.[22] In brief, cell monolayers were grown in cell culture inserts on porous membranes. For MDCK-VC, MDCK-OCT2 and Caco-2, 5 × 10^5 cells were used per well; for MDCK-OCT2-MATE1, 6 × 10^5 cells were used, and for MDCK-MATE1, 8 × 10^5 cells were used per well. Cells were grown to confluence for 72 hours, induced with 10 mM sodium butyrate 48 hours after seeding for 24 hours (MDCK only), and subsequently used for transport experiments.
(§4) In general, after the cell culture medium was removed from both sides of the monolayers, cells were washed at 37 °C with transport buffer of the same composition as described in the previous section. Experiments were started by replacing the medium in the basal compartment with medium containing the putative biomarkers or [^3H]-labeled positive control substrates. The pH of the buffer on the basal side was 7.3 and 6.5 on the apical side for MDCK cells, whereas it was 7.3 on either side for Caco-2 cells. Cells were incubated at 37 °C and the buffer from the apical compartment was taken after 60 minutes for MDCK cells and after 240 minutes for Caco-2 cells. In case of Caco-2 cells, endogenous P-gp was inhibited by adding 2 μM of valspodar to the basal compartment. To measure the cellular accumulation of the test compounds, the remaining medium was removed at the end of the incubation period and the cell monolayers were rapidly rinsed 3 times with ice-cold 0.9% NaCl in water. Filters were detached from the chambers and placed into 500 μL of 80% MeOH containing the aforementioned recovery standards to lyse cells for subsequent LC-MS analysis or into 600 μL of 0.2% SDS (control experiments only). In the control experiments, the radioactivity of the collected apical medium and the solubilized cell monolayers and protein concentrations of the cell lysates were measured in the same way as described for the experiments with HEK cells.
as §2

human OCT2 and MATE1 = test: Intracellular accumulation and transcellular transport in double-transfected MDCK-OCT2-MATE1 monolayers; format: in vitro ADME; conditions: for Intracellular concentration in MDCK-OCT2-MATE1 cells vs MDCK-VC cells: 10 μM basal, 60 minutes
Experimental: as §3, §4, §2

human OCT2 = target: T2, human OCT2 (Homo sapiens, UniProt O15244); test: Uptake assay in HEK-OCT2 vs HEK-VC cells; format: in vitro ADME; set-up: expressed in transfected cells; host or cells: HEK293 (HEK-OCT2); conditions: for Effect of cimetidine on uptake in HEK-OCT2 cells: cimetidine 50 μM; for Effect of cimetidine on uptake in HEK-OCT2 cells / Uptake in HEK-OCT2 cells compared to HEK-VC cells (in words): 10 and 100 μM substrate; for In Vitro OCT2 (substrate class): summary of in vitro uptake/transport results
T2 sequence (O15244 1-555): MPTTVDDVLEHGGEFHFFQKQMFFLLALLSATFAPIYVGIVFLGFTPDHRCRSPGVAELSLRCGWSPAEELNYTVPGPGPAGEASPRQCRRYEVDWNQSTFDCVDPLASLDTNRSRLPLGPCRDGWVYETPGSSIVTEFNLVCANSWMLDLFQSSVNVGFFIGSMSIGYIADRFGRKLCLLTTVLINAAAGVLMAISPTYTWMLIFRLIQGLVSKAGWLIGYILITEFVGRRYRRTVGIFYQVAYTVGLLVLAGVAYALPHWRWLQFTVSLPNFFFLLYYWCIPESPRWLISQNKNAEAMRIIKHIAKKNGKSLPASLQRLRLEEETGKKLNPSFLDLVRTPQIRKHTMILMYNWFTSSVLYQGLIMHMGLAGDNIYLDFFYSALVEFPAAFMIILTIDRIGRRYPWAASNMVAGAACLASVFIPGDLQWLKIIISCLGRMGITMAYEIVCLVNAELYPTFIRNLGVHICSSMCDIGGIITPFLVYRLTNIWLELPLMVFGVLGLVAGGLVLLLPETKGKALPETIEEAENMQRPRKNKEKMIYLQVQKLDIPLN
Experimental: as §1, §2

[1] = cited from earlier work
[2] = 10 μM substrate, 240 minutes, valspodar 2 μM
[3] = 5 minutes, pH 8.0, HEK-VC set to 100%
[4] = 10 μM substrate, 5 minutes, HEK-VC set to 100%

Row | Compound | Uptake in HEK-MATE1 cells compared to HEK-VC cells (in words) (MATE1; 5 minutes) | In Vitro MATE1 (substrate class) (MATE1) | Effect of valspodar on basal to apical translocation in Caco-2 cells (P-gp; [2]) | In Vitro P-gp (substrate class) (P-gp) | Intracellular concentration in MDCK-OCT2-MATE1 cells vs MDCK-VC cells (human OCT2 and MATE1) | Effect of cimetidine on uptake in HEK-OCT2 cells (human OCT2; 5 minutes) | In Vitro OCT2 (substrate class) (human OCT2) | Uptake in HEK-MATE1 cells compared to HEK-VC cells (MATE1; [3]) [%] | Effect of cimetidine on uptake in HEK-MATE1 cells (MATE1; 5 minutes) | Uptake in HEK-OCT2 cells compared to HEK-VC cells (human OCT2; [4]) [%] | Uptake in HEK-OCT2 cells compared to HEK-VC cells (in words) (human OCT2; 5 minutes) | also measured
1 | C[N+](C)(C)CCCCC(=O)[O-] [5-Amino valeric acid betaine, 5-amino valeric acid betaine] | significantly lower | + | no significant effect | - | no significant difference | significantly reduced | + |  |  |  |  | Intracellular background in HEK-MATE1 cells compared to HEK-VC cells (MATE1; 0 minutes and 5 minutes without added substance): lower; Intracellular background in MDCK-OCT2-MATE1 cells (human OCT2 and MATE1; 60 minutes without added substance): no 5-amino valeric acid betaine could be detected; Intracellular background in HEK-OCT2 cells compared to HEK-VC cells (human OCT2; 0 minutes, without added substance): lower; Intracellular concentration in HEK-OCT2 cells compared to HEK-VC cells (in words) (human OCT2; 10 μM substrate, 5 minutes): comparable; Intracellular concentration in HEK-OCT2 cells compared to HEK-VC cells (in words) (human OCT2; 100 μM substrate, 5 minutes): significantly higher; Intracellular background in HEK-OCT2 cells compared to HEK-VC cells (human OCT2; 5 minutes in transport buffer without added substance): lower
2 | NCCc1ccc(O)cc1 [Tyramine, tyramine] | significantly higher | ++ | no significant effect | - | no significant difference | significantly reduced | ++ | 545 | significantly reduced | 3245 | significantly higher | Renal clearance ([1]; healthy volunteers, after oral administration of 400 mg tyramine): 260 mL/min
3 | NCCc1c[nH]c2ccc(O)cc12 [Serotonin, serotonin] | significantly higher | ++ | no significant effect | - | significantly higher | significantly reduced | ++ | 2469 | significantly reduced | 3960 | significantly higher | Uptake ratio in HEK-MATE1 cells compared to HEK-VC cells (MATE1; 100 μM substrate, 5 minutes, pH 8.0, HEK-VC set to 100%): 1461%; Urinary excretion ([1]; healthy subjects): 0.21 ± 0.08 nmol/mL/mg creatinine; Uptake ratio in HEK-OCT2 cells compared to HEK-VC cells (human OCT2; 100 μM substrate, 5 minutes, HEK-VC set to 100%): 6281%
4 | Cn1cnc(CCN)c1 [1-Methylhistamine, 1-methylhistamine] | significantly higher | ++ | significantly reduced | 0 (significant uptake in HEK cells, but less than 300% of respective control cells or significant reduction of transcellular transport in Caco-2 cells, but reduction not below 50% of respective control without valspodar) | significantly higher |  |  | 778 | significantly reduced |  |  | Transcellular transport in Caco-2 cells with valspodar, of the respective control (P-gp; 10 μM substrate, 240 minutes, valspodar 2 μM, without valspodar set to 100%): 67%; Mean urinary excretion ([1]; healthy individuals): around 120 μg/g creatinine
